We go through 1 compound from paper PMC6934184, “Selective DNA-PKcs inhibition extends the therapeutic index of localized radiotherapy and chemotherapy” (The Journal of Clinical Investigation, 2019).

Molecules are shown by their SMILES.

The test has as its target T1, FGFR3 K650E (Homo sapiens, UniProt P22607, K650E).
T1 construct: purchased Thermo Fisher Scientific (Life Technologies) SelectScreen
The test is described as follows: SelectScreen Z'LYTE. It counts as biochemical. An outline of the steps:
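SelectScreen broad panel; activity (Z'LYTE, Adapta) plus binding formats. ATP: Km app for CSF1R Z'LYTE; 10 for CAMK1 Adapta. Readout = % per kinase.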

T1 sequence (P22607 23-806 K650E): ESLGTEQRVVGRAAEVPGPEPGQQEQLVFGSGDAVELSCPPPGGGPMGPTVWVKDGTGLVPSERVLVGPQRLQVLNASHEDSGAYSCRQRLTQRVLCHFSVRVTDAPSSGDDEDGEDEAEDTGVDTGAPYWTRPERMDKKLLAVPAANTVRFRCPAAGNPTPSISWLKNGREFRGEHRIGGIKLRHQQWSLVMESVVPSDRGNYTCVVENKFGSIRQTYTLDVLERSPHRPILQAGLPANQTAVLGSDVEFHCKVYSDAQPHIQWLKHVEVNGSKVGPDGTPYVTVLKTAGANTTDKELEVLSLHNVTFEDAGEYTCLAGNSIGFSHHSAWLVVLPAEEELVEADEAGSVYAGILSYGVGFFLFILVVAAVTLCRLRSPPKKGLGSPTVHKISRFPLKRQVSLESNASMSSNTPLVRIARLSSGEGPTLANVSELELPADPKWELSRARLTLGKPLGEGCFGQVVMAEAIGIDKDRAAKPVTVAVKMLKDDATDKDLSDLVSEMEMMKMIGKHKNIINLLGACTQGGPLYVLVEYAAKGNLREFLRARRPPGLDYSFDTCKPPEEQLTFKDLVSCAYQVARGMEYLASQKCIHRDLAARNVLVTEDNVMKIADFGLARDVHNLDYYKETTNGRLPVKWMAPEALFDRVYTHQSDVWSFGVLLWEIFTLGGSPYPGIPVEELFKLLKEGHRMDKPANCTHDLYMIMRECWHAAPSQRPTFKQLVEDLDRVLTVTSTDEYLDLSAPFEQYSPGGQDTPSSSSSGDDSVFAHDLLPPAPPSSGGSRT

For the compound `CN(C(=O)CN1CCOCC1)c1ccc2sc3c(-c4cccc5c(=O)cc(N6CC7CCC(C6)O7)oc45)cccc3c2c1` [NU5455], the inhibition – broadly, how much of the control response was suppressed – at 1 µM turned out to be 7.9%.
